The results in this text go back to patent US7205403B2, “8-Heteroaryl xanthine adenosine A2B receptor antagonists” (King Pharmaceuticals Research and Development, Inc., priority 2002, dated 2007).

In assay [1] the target is T1, human A1 adenosine receptor (Homo sapiens, UniProt P30542).
T1 construct: expressed in transfected cells; host or cells: CHO cells (membranes)
T1 sequence (P30542 1-326): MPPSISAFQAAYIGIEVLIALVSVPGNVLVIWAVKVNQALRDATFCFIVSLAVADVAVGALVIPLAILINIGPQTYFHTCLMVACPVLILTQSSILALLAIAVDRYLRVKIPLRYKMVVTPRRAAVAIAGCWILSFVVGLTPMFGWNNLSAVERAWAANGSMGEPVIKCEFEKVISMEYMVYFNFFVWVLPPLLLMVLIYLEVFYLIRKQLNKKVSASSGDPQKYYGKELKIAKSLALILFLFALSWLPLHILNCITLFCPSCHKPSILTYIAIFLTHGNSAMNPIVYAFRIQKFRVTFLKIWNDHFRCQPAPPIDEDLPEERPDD
Nature of the assay: [3H]DPCPX binding to human A1 receptors expressed in CHO cells. On the procedure:
The cells were grown adherently and maintained in Dulbecco's modified Eagle's medium with nutrient mixture F12 without nucleosides at 37° C. in 5% CO2/95% air. The cells were washed with phosphate-buffered saline and scraped off flasks in ice cold hypotonic buffer ([…] Tris HCl, 2 mM EDTA, pH 7.4). The cell suspension was homogenized with a Polytron and the homogenate was centrifuged for 30 minutes at 48,000 g. The resultant membrane pellet was re-suspended in 50 mM Tris HCl buffer at pH 7.4 for A1 adenosine receptors; in 50 mM Tris HCl 10 mM MgCl, at pH 7.4 for A2A adenosine receptors; in 50 mM Tris HCl, 10 mM MgCl2, 1 mM EDTA, at pH 7.4 for A3 adenosine receptors and were utilized for binding assays.
Displacement experiments were performed for 120 minutes at 25° C. in 200 μl of buffer containing 1 nM ^3H]-DPCPX 20 μl of diluted membranes (50 μg of protein/assay) and at least 6 to 8 different concentrations of examined compounds.
The filter bound radioactivity was counted on Top Count (efficiency 57%) with Micro-Scint 20.
The filter bound radioactivity was counted on a Top Count brand Microplate Scintillation Counter (efficiency 57%) with Micro-Scint 20. […] Inhibitory binding constant. […] Results and Discussion

In assay [2] the target is T2, human A2A adenosine receptor (Homo sapiens, UniProt P29274).
T2 construct: expressed in transfected cells; host or cells: CHO cells (membranes)
T2 sequence (P29274 whole entry): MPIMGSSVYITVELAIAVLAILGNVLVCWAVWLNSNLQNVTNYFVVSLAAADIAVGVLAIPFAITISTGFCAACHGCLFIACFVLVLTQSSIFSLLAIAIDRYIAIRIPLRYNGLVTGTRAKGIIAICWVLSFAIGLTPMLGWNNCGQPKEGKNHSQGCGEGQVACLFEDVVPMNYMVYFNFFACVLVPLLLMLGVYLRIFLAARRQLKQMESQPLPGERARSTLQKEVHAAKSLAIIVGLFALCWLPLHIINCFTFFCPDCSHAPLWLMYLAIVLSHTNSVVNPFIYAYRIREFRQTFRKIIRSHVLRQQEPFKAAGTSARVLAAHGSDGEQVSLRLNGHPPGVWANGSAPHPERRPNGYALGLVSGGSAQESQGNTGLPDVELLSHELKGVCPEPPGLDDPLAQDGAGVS
The assay can be described thus: [3H]ZM241385 binding to human A2A receptors expressed in CHO cells. The conditions noted are these: for Ki: read-out: Ki, [3H]ZM241385 binding to human A2A receptors expressed in CHO cells. The method in brief:
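Membranes from adherent CHO cells, resuspended in 50 mM Tris HCl with 10 mM MgCl2, pH 7.4. The inhibitory binding constant is reported.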

Assay [3] concerns the target T3, human A3 adenosine receptor (Homo sapiens, UniProt P0DMS8).
T3 construct: expressed in transfected cells; host or cells: CHO cells (membranes)
T3 sequence (P0DMS8 1-318): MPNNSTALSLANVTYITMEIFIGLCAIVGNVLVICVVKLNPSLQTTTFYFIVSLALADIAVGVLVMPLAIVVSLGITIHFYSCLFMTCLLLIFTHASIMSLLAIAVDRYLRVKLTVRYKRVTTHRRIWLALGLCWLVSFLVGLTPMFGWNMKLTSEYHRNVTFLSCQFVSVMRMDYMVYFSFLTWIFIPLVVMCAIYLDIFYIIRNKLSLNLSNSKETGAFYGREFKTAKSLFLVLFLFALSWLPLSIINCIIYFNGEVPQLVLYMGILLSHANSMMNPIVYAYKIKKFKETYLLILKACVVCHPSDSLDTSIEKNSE
The assay can be described thus: [3H]MRE3008F20 binding to human A3 receptors expressed in CHO cells. The method in brief:
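CHO cell membranes (50 μg protein) competed against 1 nM [3H]-MRE3008-F20 in 50 mM Tris HCl, MgCl2, pH 7.4, with 6–8 ligand concentrations in duplicate, 120 minutes at 4° C. Filter-bound radioactivity counted by scintillation; inhibitory binding constants derived.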

Assay [4] has as its target T4, human A2B adenosine receptor (Homo sapiens, UniProt P29275).
T4 sequence (P29275 1-332): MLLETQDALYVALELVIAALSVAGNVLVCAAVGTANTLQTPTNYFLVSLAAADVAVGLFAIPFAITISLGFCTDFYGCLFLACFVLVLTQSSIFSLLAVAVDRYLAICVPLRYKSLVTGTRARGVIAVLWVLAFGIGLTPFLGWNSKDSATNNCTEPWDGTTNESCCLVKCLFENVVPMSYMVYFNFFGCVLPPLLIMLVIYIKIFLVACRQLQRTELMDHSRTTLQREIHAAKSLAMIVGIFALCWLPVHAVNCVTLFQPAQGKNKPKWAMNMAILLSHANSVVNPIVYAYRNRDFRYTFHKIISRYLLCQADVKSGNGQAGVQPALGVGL
Nature of the assay: [3H]DPCPX binding to human A2B receptors expressed in HEK293 cells. The arrangement: host or cells: HEK 293 cells (membranes). The conditions noted are these: geometric mean (95% confidence interval); >1000 = no appreciable binding; read-out: Ki, [3H]DPCPX binding to human A2B receptors expressed in HEK293 cells. The method in brief:
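Membranes (20 μg protein) from HEK293 cells expressing recombinant human A2B receptor were incubated 60 min at 25° C with 40 nM [3H]-DPCPX and 6–8 compound concentrations. Buffer was Tris-HCl with MgCl2, 1 mM EDTA, 0.1 mM benzamidine and 2 IU/ml adenosine deaminase, pH 7.4. Filter-bound radioactivity gave the inhibitory binding constant.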

[5] abbreviates: geometric mean (95% confidence interval), >1000 = no appreciable binding.

Structures are written as SMILES. “Also recorded” adds a separate entry of the source. Like-named read-outs stand apart in the source and are kept apart here.

`CCCn1c(=O)c2[nH]c(-c3cc(NC(=O)Cc4cccc(OC)c4)nn3C)nc2n(CCC)c1=O` [AS13, 2-(3-methoxyphenyl)-N-[5-(2,6-dioxo-1,3-dipropyl-2,3,6,9-tetrahydro-1H-purin-8-yl)-1-methyl-1H-pyrazol-3-yl]acetamide]: the “Ki, [3H]DPCPX binding to human A1 receptors expressed in CHO cells” value (“Ki, [3H]DPCPX binding” for short) in assay [1] (setting [5]) was “no appreciable affinity; also recorded: without significant binding”. In addition, the “Ki, [3H]ZM241385 binding to human A2A receptors expressed in CHO cells” value (from here on “Ki, [3H]ZM241385 binding”) in assay [2] (setting [5]) is “no appreciable affinity; also recorded: without significant binding”. Moreover, the results for the Ki in assay [2], in assay [3] and in assay [4] were > 1000 nM, > 1000 nM and 96 nM, respectively. In addition, the “Ki, [3H]MRE3008F20 binding to human A3 receptors expressed in CHO cells” value (from here on “Ki, [3H]MRE3008F20 binding”) in assay [3] (setting [5]) is listed as “no appreciable affinity; also recorded: without significant binding”.
Consider `CCCn1c(=O)c2[nH]c(-c3cc(NC(=O)COc4ccc(Cl)cc4)nn3C)nc2n(CCC)c1=O` [AS21, 2-(4-chlorophenoxy)-N-[5-(1,3-dipropyl-2,6-dioxo-2,3,6,7-tetrahydro-1H-purin-8-yl)-1-methyl-1H-pyrazol-3-yl]acetamide], for which the inhibitory constant (Ki) in assay [1], in assay [2], in assay [3] and in assay [4] was > 1000 nM in each case.
`CCCn1c(=O)c2[nH]c(-c3cc(OCC(=O)Nc4ccc(F)cc4)n(C)n3)nc2n(CCC)c1=O` [AS61, N-(4-fluorophenyl)-2-{[3-(2,6-dioxo-1,3-dipropyl-2,3,6,9-tetrahydro-1H-purin-8-yl)-1-methyl-1H-pyrazol-5-yl]oxy}acetamide]: the inhibition constant Ki in assay [1] (setting [5]) is 181 nM; in assay [2] it was > 1000 nM; in assay [3], > 1000 nM; in assay [4], 185 nM.
Turning to `CCCn1c(=O)c2[nH]c(-c3cc(NC(=O)Cc4ccc([N+](=O)[O-])cc4)nn3C)nc2n(CCC)c1=O` [AS15, N-[5-(2,6-dioxo-1,3-dipropyl-2,3,6,9-tetrahydro-1H-purin-8-yl)-1-methyl-1H-pyrazol-3-yl]-2-(4-nitrophenyl)acetamide], the “Ki, [3H]DPCPX binding” value in assay [1] (setting [5]) is recorded as “no appreciable affinity; also recorded: without significant binding”. Besides, in assay [2] (setting [5]), the “Ki, [3H]ZM241385 binding” value is “no appreciable affinity; also recorded: without significant binding”. The Ki in assay [2] was > 1000 nM; in assay [3], > 1000 nM; in assay [4], 78 nM. In addition, in assay [3] (setting [5]), the “Ki, [3H]MRE3008F20 binding” value is given as “no appreciable affinity; also recorded: without significant binding”.
Consider `CCCn1c(=O)c2[nH]c(-c3cc(NC(=O)COc4ccc(Cl)cc4Cl)nn3C)nc2n(CCC)c1=O` [AS12, 2-(2,4-dichlorophenoxy)-N-[5-(2,6-dioxo-1,3-dipropyl-2,3,6,7-tetrahydro-1H-purin-8-yl)-1-methyl-1H-pyrazol-3-yl]acetamide], for which the inhibitory constant (Ki) in assay [1], in assay [2], in assay [3] and in assay [4] was > 1000 nM in each case.
In the case of `CCCn1c(=O)c2[nH]c(-c3cc(NC(=O)CCCN)nn3C)nc2n(CCC)c1=O` [AS10, 4-{[5-(2,6-dioxo-1,3-dipropyl-2,3,6,7-tetrahydro-1H-purin-8-yl)-1-methyl-1H-pyrazol-3-yl]amino}-4-oxobutan-1-aminium chloride], the Ki in assay [1] (setting [5]) is 548 nM; in assay [2] it was > 1000 nM; in assay [3] it was > 1000 nM; in assay [4] it was 2060 nM.
For `CCCn1c(=O)c2[nH]c(-c3cc(OCC(=O)Nc4ccc(C(C)=O)cc4)nn3C)nc2n(CCC)c1=O` [AS69], the “Ki, [3H]DPCPX binding” value in assay [1] (setting [5]) is “without significant binding”. Moreover, the “Ki, [3H]ZM241385 binding” value in assay [2] (setting [5]) was “without significant binding”. The “Ki, [3H]MRE3008F20 binding” value in assay [3] (setting [5]) is on record as “without significant binding”. Also, the inhibitory constant (Ki) in assay [4] is 86 nM.
For `CCCn1c(=O)c2[nH]c(-c3cc(NC(=O)Cc4ccc(C(F)(F)F)cc4)nn3C)nc2n(CCC)c1=O` [AS32, N-[5-(2,6-dioxo-1,3-dipropyl-2,3,6,9-tetrahydro-1H-purin-8-yl)-1-methyl-1H-pyrazol-3-yl]-2-[4-(trifluoromethyl)phenyl]acetamide], the Ki was 746 nM in assay [1] (setting [5]), > 1000 nM in assay [2], > 1000 nM in assay [3] and 190 nM in assay [4].
In the case of `CCCn1c(=O)c2[nH]c(-c3cc(NC(=O)Nc4ccc(OC)cc4)nn3C)nc2n(CCC)c1=O` [AS49, 1-[5-(2,6-Dioxo-1,3-dipropyl-2,3,6,7-tetrahydro-1H-purin-8-yl)-1-methyl-1H-pyrazol-3-yl]-3-(4-methoxy-phenyl)-urea], the Ki was 1440 nM in assay [1] (setting [5]), > 1000 nM in assay [2], > 1000 nM in assay [3] and 81 nM in assay [4].
Regarding `CCCn1c(=O)c2[nH]c(-c3cc(NC(=O)Cc4ccc(F)cc4)nn3C)nc2n(CCC)c1=O` [AS22, N-[5-(2,6-dioxo-1,3-dipropyl-2,3,6,9-tetrahydro-1H-purin-8-yl)-1-methyl-1H-pyrazol-3-yl]-2-(4-fluorophenyl)acetamide], the Ki in assay [1] (setting [5]) was 200 nM; in assay [2], > 1000 nM; in assay [3] it was > 1000 nM; in assay [4] it was 88 nM.
Regarding `CCCn1c(=O)c2[nH]c(-c3cc(OCC(=O)Nc4ccc(C)cc4)nn3C)nc2n(CCC)c1=O` [AS59, N-(4-methylphenyl)-2-{[5-(1,3-dipropyl-2,6-dioxo-2,3,6,7-tetrahydro-1H-purin-8-yl)-1-methyl-1H-pyrazol-3-yl]oxy}acetamide], the Ki in assay [1] (setting [5]) is > 1000 nM; in assay [2] (setting [5]), > 1000 nM; in assay [3] (setting [5]) it was > 1000 nM; in assay [4], 1010 nM.
Take `CC(C)Cn1c(=O)c2[nH]c(-c3cc(OCC(=O)Nc4ccc(F)cc4)n(C)n3)nc2n(CC(C)C)c1=O` [AS62, 2-{[3-(1,3-diisobutyl-2,6-dioxo-2,3,6,9-tetrahydro-1H-purin-8-yl)-1-methyl-1H-pyrazol-5-yl]oxy}-N-(4-fluorophenyl)acetamide]: the Ki in assay [1] (setting [5]) is 72 nM; in assay [2], > 1000 nM; in assay [3], > 1000 nM; in assay [4], 207 nM.
With `CCCn1c(=O)c2[nH]c(-c3cc(NC(=O)Cc4ccc(OCc5ccccc5)cc4)nn3C)nc2n(CCC)c1=O` [AS16, 2-[4-benzyloxyphenyl]-N-[5-(2,6-dioxo-1,3-dipropyl-2,3,6,9-tetrahydro-1H-purin-8-yl)-1-methyl-1H-pyrazol-3-yl]acetamide], the “Ki, [3H]DPCPX binding” value in assay [1] (setting [5]) is given as “no appreciable affinity; also recorded: without significant binding”. Further, the “Ki, [3H]ZM241385 binding” value in assay [2] (setting [5]) is given as “no appreciable affinity; also recorded: without significant binding”. Also, the inhibition constant Ki in assay [2] was > 1000 nM; in assay [3], > 1000 nM; in assay [4], 56 nM. In addition, the “Ki, [3H]MRE3008F20 binding” value in assay [3] (setting [5]) is reported as “no appreciable affinity; also recorded: without significant binding”.

As a reminder, the Ki is a dissociation constant, usually derived from enzyme kinetics or from competition with a known ligand.
